{"source": "patent US7052871B2", "about": "“Methods of improving transformation efficiency of plants with auxin responsive promoter sequences” (Pioneer Hi-Bred International, Inc., priority 2000, dated 2006)", "key": {"[1]": {"system": "ZmAxig1 mRNA in BMS (Black Mexican Sweet) maize cells", "assay": "Northern blot of mRNA from BMS cells cultured on auxin-containing medium, probed with SEQ ID No. 12", "type": "cell-based, Zea mays", "settings": "BMS cultured cells (FIG. 4)"}, "ZmAxig1 mRNA": {"system": "ZmAxig1 mRNA", "assay": "Northern blot of mRNA from treated plants probed with SEQ ID No. 12 (CJLP181)", "type": "in vivo, Zea mays", "settings": "for hybridization of SEQ ID No. 12 probe with mRNA from anther or entire aerial portion of treated plants: anther or entire aerial portion of treated plants (FIG. 4)"}, "[2]": {"system": "male fertility of pZmAxig1:Ms45 plants", "assay": "Fertility restoration in ms45 male sterile maize plants transformed with V2 (pZmAxig1:Ms45)", "type": "in vivo, Zea mays", "source_text": "A second DNA plasmid was constructed by combining the ZmAxig1 promoter (1306 bases 5′ of start codon; SEQ ID NO: 16) with the Ms45 coding sequence and 35S:PAT in a T-DNA vector. This plasmid was cointegrated with Japan Tobacco plasmid pSB1 to create a second suitable vector, V2.\nMaize GS3Ms45EX4 embryos, segregating for homozygous ms45 (male sterile) and Ms45/ms45 (male fertile) genotypes, were transformed with the first and second vectors using Agrobacterium.\nTransformed cell lines homozygous for the ms45 male sterile genotype were screened by quantitative PCR screening and advanced for regeneration into plants. Positive lines were transferred to 289B medium, an MS-based medium containing bialaphos and carbenicillin, with lower sucrose and hormone levels, to initiate plant regeneration. Following somatic embryo maturation (2–3 weeks), well-developed somatic embryos were transferred to medium for germination and transferred to the lighted culture room. Approximately 7 days later, developing plantlets were transferred to medium in tubes for 7 days until plantlets were well established. Plants were then transferred to inserts in flats (equivalent to 2.5″ pot) containing potting soil and grown for one week in a growth chamber, subsequently grown an additional 1–2 weeks in the greenhouse, then transferred to classic 600 pots (1.6 gallon) and grown to maturity.\nFrom each of 20 independent callus lines transformed with V2, six regenerated plants were grown in the greenhouse. […] The plants were scored for fertility after tassels emerged."}, "[3]": {"system": "cDNA fragments (w0h051.7, ZmAxig1)", "settings": "anthers; two daily soil drenches of 12 μl dicamba formulation in 450 ml water", "source_text": "Anthers containing microsporocytes at meiosis […] through early uninucleate stages of development were harvested on the third day and frozen. Anthers containing microsporocytes at prophase through early uninucleate stages of development were harvested from non-treated plants. Frozen tissues were ground and total RNA extracted with Tripure™ isolation reagent (Boehringer Mannheim, Indianapolis, Ind.) according to the manufacturer's instructions.\nRNA isolated from anthers of three dicamba-treated plants and three non-treated plants was sent to laboratories of CuraGen Corporation (New Haven, Conn.) for quantitative expression profiling. […] (FIG. 3)"}, "[4]": {"system": "ZmAxig1 expression in anthers", "procedure": "Progeny of transgenic maize plants, hemizygous for the maize anther-preferred promoter 5126 (U.S. Pat. Nos. 5,689,049 and 5,689,051) driving DAM methylase linked with 35S:PAT (p5126:DAM/35S:PAT), were grown in the greenhouse. Expression of p5126:DAM is known to ablate the tapetum prior to the quartet stage of microspore development, which results in male sterile plants.\nPlants segregating for male fertile/glufosinate-ammonium susceptible phenotype (wild-type) or for male sterile/glufosinate-ammonium resistant phenotype (p5126:DAM/35S:PAT), were treated with a dicamba soil drench as described above, or were not treated. Quartet/early-uninucleate stage anthers were harvested from these plants and mRNA was isolated with the QuickPrep® Micro mRNA purification kit (Amersham Pharmacia, Piscataway, N.J.) according to the manufacturer's instructions.\n(§1) Quartet/early-uninucleate stage anthers from dicamba-treated or non-treated plants were harvested and embedded for in situ hybridization or frozen for mRNA isolation as described above."}, "[5]": {"system": "ZmAxig1 transcripts in the tapetum", "settings": "treated plants (FIG. 7)", "source_text": "as §1"}}}
{"smiles": "O=C(O)COc1ccc(Cl)cc1Cl", "note": "[2,4-D, 2,4-dichlorophenoxyacetic acid]", "values": [{"measurement": "hybridization of SEQ ID No. 12 probe with mRNA from BMS maize cultured on medium containing the auxin", "setting": "[1]", "result": "hybridized"}]}
{"smiles": "NC(=O)NS(=O)(=O)c1ccccc1Cl", "note": "[CBSU]", "values": [{"measurement": "hybridization of SEQ ID No. 12 probe with mRNA from anther or entire aerial portion of treated plants", "setting": "ZmAxig1 mRNA", "result": "did not hybridize"}]}
{"smiles": "CC1=C(C(=O)Nc2ccccc2)SCCO1", "note": "[Carboxin]", "values": [{"measurement": "hybridization of SEQ ID No. 12 probe with mRNA from anther or entire aerial portion of treated plants", "setting": "ZmAxig1 mRNA", "result": "did not hybridize"}]}
{"smiles": "C=CCN(CC=C)C(=O)C(Cl)Cl", "note": "[Dichlormid]", "values": [{"measurement": "hybridization of SEQ ID No. 12 probe with mRNA from anther or entire aerial portion of treated plants", "setting": "ZmAxig1 mRNA", "result": "did not hybridize"}]}
{"smiles": "CN(C)C(=O)Nc1ccc(Cl)c(Cl)c1", "note": "[Diuron]", "values": [{"measurement": "hybridization of SEQ ID No. 12 probe with mRNA from anther or entire aerial portion of treated plants", "setting": "ZmAxig1 mRNA", "result": "did not hybridize"}]}
{"smiles": "COCC(=O)N(c1c(C)cccc1C)C(C)C(=O)OC", "note": "(stereo not shown) [Metalaxyl]", "values": [{"measurement": "hybridization of SEQ ID No. 12 probe with mRNA from anther or entire aerial portion of treated plants", "setting": "ZmAxig1 mRNA", "result": "did not hybridize"}]}
{"smiles": "O=C(O)c1nc(Cl)ccc1Cl", "note": "[clopyralid]", "values": [{"measurement": "plants showing partial to complete male fertile phenotypes, foliar application", "setting": "[2]; 10 μl clopyralid formulation, foliar application with 1 ml water, homozygous ms45 V2 progeny", "result": "Two of five"}, {"measurement": "plants showing partial to complete male fertile phenotypes, soil drench application", "setting": "[2]; 10 μl clopyralid formulation, soil drench with 200 ml water, homozygous ms45 V2 progeny", "result": "three of six"}]}
{"smiles": "COc1c(Cl)ccc(Cl)c1C(=O)O", "note": "[dicamba]", "values": [{"measurement": "expression level of induced cDNA fragments relative to the control", "setting": "[3]", "result": "greater than 2.5 fold"}, {"measurement": "hybridization of SEQ ID No. 12 probe with mRNA from anthers of treated plants", "setting": "ZmAxig1 mRNA; anthers, northern blot (FIG. 3)", "result": "hybridized very strongly"}, {"measurement": "hybridization of SEQ ID No. 12 probe with mRNA from tassel or whorl leaf of treated plants", "setting": "ZmAxig1 mRNA; tassel or whorl leaf, northern blot (FIG. 3)", "result": "to a lesser degree"}, {"measurement": "ZmAxig1 expression in anthers of treated plants (Northern blot)", "setting": "[4]; quartet/early-uninucleate stage anthers", "result": "induced"}, {"measurement": "induction of ZmAxig1 expression in anthers from wild-type male fertile plants", "setting": "[4]; soil drench, quartet/early-uninucleate stage anthers (FIG. 6)", "result": "induced expression of ZmAxig1"}, {"measurement": "induction of ZmAxig1 expression in anthers from male sterile p5126:DAM/35S:PAT plants", "setting": "[4]; soil drench, tapetum-ablated male sterile plants (FIG. 6)", "result": "not in anthers from male sterile plants"}, {"measurement": "in situ hybridization of ZmAxig1 antisense RNA probe to RNA in tapetum of anthers and microspores", "setting": "[5]", "result": "strong in situ hybridization"}, {"measurement": "plants with fertile phenotype", "setting": "[2]; of 81 treated V2 plants", "result": 33, "unit": "plants"}, {"measurement": "plants with shedder (partially fertile) phenotype", "setting": "[2]; of 81 treated V2 plants", "result": 36, "unit": "plants"}, {"measurement": "plants that produced anthers with pollen", "setting": "[2]; of 81 treated V2 plants, daily soil drench 3 μl dicamba formulation, one to three days", "result": 69, "unit": "plants"}, {"measurement": "viability of pollen from treated plants", "setting": "[2]; pollen from 9 treated plants used to pollinate non-transformed ears, kernels germinated", "result": "viable"}]}
